Experimental data from publication PMC6753678, “Fueling Open Innovation for Malaria Transmission-Blocking Drugs: Hundreds of Molecules Targeting Early Parasite Mosquito Stages” (Frontiers in Microbiology, 2019).
Like-named read-outs stand apart in the source and are kept apart here.

What was measured:
HepG2 cells = assay: HepG2 cytotoxicity assay; conditions: for IC50: read-out: HepG2 cytotoxicity assay IC50, dose response confirmation; for Pb ODA (this manuscript) HepG2 cytoxicity: HepG2 cytotoxicity listed with the Pb ODA data set (this manuscript)
Method in brief: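 Here viability after a 48 h compound incubation (37°C, humidified 5% CO2) is measured by fluorescence and expressed as percent inhibition, with doxorubicin at 50 μM and DMSO as the bounding controls.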

[1] = test system: 3D7-strain P. falciparum asexual parasites; assay: P. falciparum asexual growth inhibition assay (Pf GIA); type: cell-based, Plasmodium falciparum; conditions: dose response confirmation; read-out: Pf asexual growth inhibition assays IC50
Method in brief: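 0.25% parasitemia, 2% Hct, RPMI/HEPES/hypoxanthine/5% Albumax; compound dose response, 72 h, 37°C, 5% CO2, 5% O2, 90% N2. Freeze-thaw, then LDH assay, A650. % inhibition vs chloroquine (50 μM)/DMSO, mean of 3 independent runs.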

[2] = test system: P. berghei ookinete development; conditions: for % inhibition, Replicate A / % inhibition, Replicate B: primary screen at 1 μM
[3] = unified HepG2 value across the three screens
[4] = read-out: Pb ODA IC50, this manuscript
[5] = read-out: Pb Ookinete development assay IC50, dose response confirmation
[6] = HepG2 values of the three screens unified
[7] = read-out: Pb ODA (this manuscript) IC50, P. berghei ookinete development assay, this manuscript

| SMILES | IC50 (HepG2 cells) | Unified cytotox (HepG2 cells; [3]) | IC50 [1] | Is compound selective in assay? Pb ODA active? ([2]; 1: YES, 0: NO) | % inhibition, Replicate A [2] | % inhibition, Replicate B [2] | IC50 [2, 4] | IC50 [2, 5] | HepG2 cytoxicity (Pb ODA, this manuscript) (HepG2 cells) | Unified cytotox (HepG2 cells; [6]) | Pb ODA (this manuscript) HepG2 cytoxicity (HepG2 cells) | Is compound selective in assay? Pb ODA active? [2] | % inhibition, Replicate A ([2]; 1 µM) | % inhibition, Replicate B ([2]; 1 µM) | IC50 [2, 7] |
| --- | --- | --- | --- | --- | --- | --- | --- | --- | --- | --- | --- | --- | --- | --- | --- |
| CCCCOc1cc2ncc(C(=O)OCC)c(O)c2cc1OCCCC [TCMDC-137523] | 100000 nM | 100.00 µM | 63 nM | 1 (1: YES) | 74.60% | 95.02% | 2190 nM | 2190 nM |  |  |  |  |  |  |  |
| Cc1cc(O)c(-c2ccc(Oc3ccc(F)cc3)cc2)c(C)n1 [TCMDC-137535] | 280 nM |  | 1030 nM | 0 (0: NO) | 57.60% | 38.98% | 580 nM | 583 nM | 0.28 µM | 0.28 µM |  |  |  |  |  |
| Cc1cc(=O)c(-c2ccc(Oc3cccc(C(F)(F)F)c3)cc2)c(C)[nH]1 [TCMDC-137536] | 100000 nM |  | 3230 nM |  |  |  |  | 2650 nM |  |  | 100.00 µM | 1 (key: 1: YES; 0: NO) | 91.76% | 80.63% | 2650 nM |
| CCCCCCCCc1c(C)[nH]c(C)c(Cl)c1=O [TCMDC-137538] | 4790 nM | 4.79 µM | 102 nM | 1 (1: YES) | 94.00% | 90.22% | 130 nM | 131 nM |  |  |  |  |  |  |  |
| CCN1CCN(CCNc2c3ccccc3nc3ccccc23)CC1.Cl [TCMDC-137545] | 11800 nM |  | 606 nM | 0 (0: NO) | 68.50% | 47.85% | 1780 nM | 1780 nM | 11.75 µM | 11.75 µM |  |  |  |  |  |
| CCN1CCN(CCCNc2c3ccccc3nc3ccccc23)CC1.Cl [TCMDC-137546] | 9120 nM |  | 616 nM | 0 (0: NO) | 55.87% | 53.70% | 3050 nM | 3040 nM | 9.12 µM | 9.12 µM |  |  |  |  |  |
| CC(C)N1CCN(CCCNc2c3ccccc3nc3ccccc23)CC1.Cl [TCMDC-137547] | 14400 nM |  | 518 nM | 0 (0: NO) | 29.07% | 62.42% | 3710 nM | 3710 nM | 14.45 µM | 14.45 µM |  |  |  |  |  |
| CCCN1CCN(CCNc2c3ccccc3nc3ccccc23)CC1 [TCMDC-137549] | 7410 nM |  | 965 nM | 0 (0: NO) | 61.15% | 52.76% | 2010 nM | 2010 nM | 7.41 µM | 7.41 µM |  |  |  |  |  |
| Cl.c1ccc(CN2CCN(CCNc3c4ccccc4nc4ccccc34)CC2)cc1 [TCMDC-137571] | 24000 nM |  | 446 nM | 0 (0: NO) | 19.05% | 55.37% | 2890 nM | 2900 nM | 23.99 µM | 23.99 µM |  |  |  |  |  |
| CC(C)N1CCN(CCCCNc2c3ccccc3nc3ccccc23)CC1.Cl [TCMDC-137573] | 5750 nM |  | 10 nM | 0 (0: NO) | 42.86% | 78.36% | 2890 nM | 2890 nM | 5.75 µM | 5.75 µM |  |  |  |  |  |
| CCCN1CCN(CCCCNc2c3ccccc3nc3ccccc23)CC1.Cl [TCMDC-137576] | 5370 nM |  | 238 nM | 0 (0: NO) | 35.45% | 63.99% | 2330 nM | 2320 nM | 5.37 µM | 5.37 µM |  |  |  |  |  |
| CCOC(=O)N1CCN(CCCCNc2c3ccc(Cl)cc3nc3ccc(OC)cc23)CC1.Cl [TCMDC-137579] | 5500 nM |  | 30 nM |  | 26.46% | 54.23% |  | 4490 nM |  |  | 5.50 µM | 0 (key: 1: YES; 0: NO) |  |  | 4490 nM |
| COc1ccc2nc3cc(Cl)ccc3c(NCCCN3CCNCC3)c2c1.Cl [TCMDC-137580] | 14800 nM |  | 56 nM |  | 53.44% | 35.84% |  | 1680 nM |  |  | 14.79 µM | 0 (key: 1: YES; 0: NO) |  |  | 1680 nM |
| Cc1nc2nc(N)nc(N)c2c(C)c1Cc1ccc(N)cc1.Cl [TCMDC-137633] | 80 nM |  | 287 nM |  | 2.48% | 52.30% |  | 6210 nM |  |  | 0.08 µM | 0 (key: 1: YES; 0: NO) |  |  | 6210 nM |
| COc1ccc2nc3cc(Cl)ccc3c(NCc3ccccc3)c2c1.Cl [TCMDC-137663] | 41700 nM |  | 424 nM |  | 39.90% | 59.60% |  | 1630 nM |  |  | 41.69 µM | 1 (key: 1: YES; 0: NO) |  |  | 1630 nM |
| Cc1nc2nc(N)nc(N)c2c(C)c1Cc1ccccc1.Cl [TCMDC-137670] | 30 nM |  | 169 nM |  | 51.61% | 57.72% |  | 3020 nM |  |  | 0.03 µM | 0 (key: 1: YES; 0: NO) |  |  | 3020 nM |
| Nc1nc(N)c2c(ccc3c2ncn3Cc2ccccc2)n1 [TCMDC-137749] | 1150 nM | 1.15 µM | 244 nM | 0 (0: NO) | 48.44% | 74.97% | 4450 nM | 4450 nM |  |  |  |  |  |  |  |
| CCC1=C[C@@H]2CN(C1)Cc1c([nH]c3ccccc13)[C@@](C(=O)OC)(c1cc3c(cc1OC)N(C)[C@H]1[C@@](O)(C(=O)OC)[C@H](O)[C@]4(CC)C=CCN5CC[C@]31[C@@H]54)C2.O=S(=O)(O)O [TCMDC-137769] | 41200 nM | 41.21 µM | 213 nM | 1 (1: YES) | 141.80% | 104.79% | 360 nM | 365 nM |  |  |  |  |  |  |  |
